Laboratory results taken from PubChem BioAssay AID2060898 (Molecular Pharmacology Branch, DTP, NCI, 2025).

Tested on: 616215-338-R-J1-PDC complex spheroid viability
Assay: Anticancer human tumor 616215-338-R-J1-PDC patient-derived colon adenocarcinoma cell line growth inhibition [RAS]
Settings: for IC50: curve of first compound; for viability, T/C: stronger effect = lower value
From the text: RAS pathway inhibitors in Combinations in Complex Spheroids
A high-throughput screen of multi-cell type tumor spheroids was designed to identify active combinations of RAS pathway inhibitors and targeted small molecules. Complex spheroids include a stromal component modeled by human endothelial cells (HUVEC) and fibroblasts modeled by human mesenchymal stem cells (MSCs). The concentration ranges selected for each drug and investigational agent were based upon clinically achievable concentrations if the clinical Cmax of the agent was known.
Compounds. The drugs and investigational agents: abemaciclib (NSC768073), cobimetinib (NSC768068), divarasib (GDC6063, NSC841802), docetaxel (NSC628503), GDC-1971 (RLY-1971, NSC841576), gemcitabine (NSC613327), inavolisib (NSC800729), ipatasertib (NSC767898), KB-0742 (NSC834161), MRTX-1133 (NSC836407), osimertinib (NSC779217), RMC-4630 (NSC839698), RMC-6236 (NSC851965), RMC-6291 (NSC852671), Ro-3306 (NSC812927), sapanisertib (NSC764658), SN-38 (NSC673596), staurosporine (NSC755774), SY5609 (NSC837396), and tovorafenib (DAY101, NSC766906), were obtained from the National Cancer Institute (NCI) Developmental Therapeutics Program Chemical Repository. The FDA-approved anticancer drug set is available from the NCI Developmental Therapeutics Program. […] The stock solutions were prepared in dimethyl sulfoxide (DMSO, Sigma-Aldrich, St. Louis, MO, cat. D2650) at 800-fold the tested concentration and stored at -70 degrees C prior to their use. All drugs and investigational agents were tested over a range starting from a high concentration at or near the clinical Cmax and decreasing in half-log increments. If the clinical Cmax for an agent had not been determined, the highest concentration tested was 10 microM.
Cell Culture. All cells were maintained in an incubator at 37 degrees C and 5% CO2 with 95% humidity. The PDC lines were cultured according to standard operating procedures established by the NCI PDMR. All PDCs were thawed and cultured in Matrigel-coated flasks prepared with a working solution of 1X Ham's F-12 nutrient mix, without supplementation (Invitrogen, Waltham, MA, cat. 11765054), 100 U/mL penicillin-streptomycin (Invitrogen, cat. 15140122), and 2.5% Matrigel (Corning Inc., Corning, NY, cat. 354248) for the first three passages. The 362531-283-R-J2-PDC and 782815-120-R-J1-PDC lines were cultured in 6C/Colon 1B media, which includes advanced DMEM/F-12 (Thermo Fisher Scientific, cat. 12634028), 10 mM HEPES (Thermo Fisher Scientific, cat. 15630080), 1X GlutaMAX supplement (Thermo Fisher Scientific, cat. 35050061), 0.1 mg/mL primocin (InvivoGen, San Diego, CA, cat. ant-pm-2), 10% defined fetal bovine serum, heat inactivated (HyClone Laboratories Inc., Logan, UT, cat. SH30070.03HI), 50% L-WRN conditioned media (ATCC, cat. CRL-3276), 1.25 mM N-Acetyl-L-cysteine (Sigma-Aldrich, cat. A9165), 10 mM nicotinamide (Sigma-Aldrich, cat. N0636), 1X B-27 supplement (Thermo Fisher Scientific, cat. 17504044), 1X N-2 supplement (Thermo Fisher Scientific, cat. 17502048), 50 ng/mL human EGF (Thermo Fisher Scientific, cat. PHG0311), and 10 microM Y-27632 dihydrochloride (Tocris Bioscience, cat. 1254). The K12877-001-R-J1-PDC line was cultured in 6I media, which includes all 6C/Colon 1B media plus 10 ng/mL human FGF-10 (PeproTech, cat. 100-26), 1 ng/mL human FGF-2 (PeproTech, cat. 100-18B), 1 µM prostaglandin E2 (Tocris Bioscience, cat. 2296), […] hydrocortisone (Sigma-Aldrich, cat. H4001), and […] bovine insulin (Sigma-Aldrich, cat. I6634). The K86415-001-R-J1-PDC line was cultured in 6D media, which includes all 6C/Colon 1B media components minus the L-WRN conditioned media. The 485176-168-R4-J1-PDC was cultured in PANC media, which includes all 6C/Colon 1B media plus 100 ng/mL human FGF-10 (PeproTech, cat. 100-26), 500 nM SB-431542 (Selleckchem, cat. S1067), and 10 nM gastrin (Tocris Bioscience, cat. 3006). […]

[1] = second compound 0.0316 µM, first compound 0.0316 µM
[2] = second compound 0.0316 µM, first compound 0.1 µM
[3] = second compound 0.0316 µM, first compound 0.316 µM
[4] = second compound 0.0316 µM, first compound 1 µM
[5] = second compound 0.0316 µM, first compound 3.16 µM
[6] = second compound 0.0316 µM, first compound 10 µM
[7] = second compound 0.1 µM, first compound 0.0316 µM
[8] = second compound 0.1 µM, first compound 0.1 µM
[9] = second compound 0.1 µM, first compound 0.316 µM
[10] = second compound 0.1 µM, first compound 1 µM
[11] = second compound 0.1 µM, first compound 3.16 µM
[12] = second compound 0.1 µM, first compound 10 µM
[13] = second compound 0.316 µM, first compound 0.0316 µM
[14] = second compound 0.316 µM, first compound 0.1 µM
[15] = second compound 0.316 µM, first compound 0.316 µM
[16] = second compound 0.316 µM, first compound 1 µM
[17] = second compound 0.316 µM, first compound 3.16 µM
[18] = second compound 0.316 µM, first compound 10 µM
[19] = second compound 1 µM, first compound 0.0316 µM
[20] = second compound 1 µM, first compound 0.1 µM
[21] = second compound 1 µM, first compound 0.316 µM
[22] = second compound 1 µM, first compound 1 µM
[23] = second compound 1 µM, first compound 3.16 µM
[24] = second compound 1 µM, first compound 10 µM
[25] = second compound 3.16 µM, first compound 0.0316 µM
[26] = second compound 3.16 µM, first compound 0.1 µM
[27] = second compound 3.16 µM, first compound 0.316 µM
[28] = second compound 3.16 µM, first compound 1 µM
[29] = second compound 3.16 µM, first compound 3.16 µM
[30] = second compound 3.16 µM, first compound 10 µM
[31] = second compound 10 µM, first compound 0.0316 µM
[32] = second compound 10 µM, first compound 0.1 µM
[33] = second compound 10 µM, first compound 0.316 µM
[34] = second compound 10 µM, first compound 1 µM
[35] = second compound 10 µM, first compound 3.16 µM
[36] = second compound 10 µM, first compound 10 µM
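Also: spheroids exposed to agents for seven days before viability readout.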
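For viability, T/C in this document: 100% = DMSO vehicle control viability.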

In the case of CCC(CC)c1cc(NC2CCC(N)C2)n2nccc2n1 (stereo unspecified) + C#Cc1c(F)ccc2cc(O)cc(-c3ncc4c(N5CC6CCC(C5)N6)nc(OCC56CCCN5CC(F)C6)nc4c3F)c12, the IC50 (second compound 0.0316 µM) is reported as 1780 nM, the IC50 (second compound 0.1 µM) is reported as 1780 nM and the IC50 (second compound 0.316 µM) is reported as 1840 nM. It also gave an IC50 (second compound 1 µM) of 1850 nM, an IC50 (second compound 3.16 µM) of 1510 nM and an IC50 (second compound 10 µM) of 1240 nM. The viability, T/C [1] was 102%, the viability, T/C [2] was 98.3% and the viability, T/C [3] was 109%. For the same molecule, the viability, T/C [4] was 99.3%, the viability, T/C [5] was 0.29% and the viability, T/C [6] was 1.51%. The viability, T/C [7] was 104%, the viability, T/C [8] was 105% and the viability, T/C [9] was 96.3%. It also gave a viability, T/C [10] of 99.9%, a viability, T/C [11] of 0.27% and a viability, T/C [12] of 0.21%. It also gave a viability, T/C [13] of 112%, a viability, T/C [14] of 111% and a viability, T/C [15] of 101%. The viability, T/C [16] was 106%, the viability, T/C [17] was 0.21% and the viability, T/C [18] was 1.88%. It also gave a viability, T/C [19] of 105%, a viability, T/C [20] of 110% and a viability, T/C [21] of 113%. It also gave a viability, T/C [22] of 106%, a viability, T/C [23] of 1.09% and a viability, T/C [24] of 1.83%. For the same molecule, the viability, T/C [25] was 115%, the viability, T/C [26] was 111% and the viability, T/C [27] was 121%. For the same molecule, the viability, T/C [28] was 77.7%, the viability, T/C [29] was 0.19% and the viability, T/C [30] was 1.03%. For the same molecule, the viability, T/C [31] was 83.3%, the viability, T/C [32] was 74.5% and the viability, T/C [33] was 108%. For the same molecule, the viability, T/C [34] was 61.3%, the viability, T/C [35] was 3.3% and the viability, T/C [36] was 0.3%.
With Cc1nc(N2CCC3(CC2)COC(C)C3N)c(CO)nc1Sc1ccnc(N)c1Cl (stereo unspecified) + C#Cc1c(F)ccc2cc(O)cc(-c3ncc4c(N5CC6CCC(C5)N6)nc(OCC56CCCN5CC(F)C6)nc4c3F)c12 the IC50 (second compound 0.0316 µM) was > 10000 nM, the IC50 (second compound 0.1 µM) was > 10000 nM and the IC50 (second compound 0.316 µM) was 5230 nM. It also gave an IC50 (second compound 1 µM) of 537 nM, an IC50 (second compound 3.16 µM) of 302 nM and an IC50 (second compound 10 µM) of 182 nM. It also gave a viability, T/C [1] of 99.5%, a viability, T/C [2] of 108% and a viability, T/C [3] of 116%. It also gave a viability, T/C [4] of 95.2%, a viability, T/C [5] of 88.5% and a viability, T/C [6] of 67.8%. The viability, T/C [7] was 101%, the viability, T/C [8] was 113% and the viability, T/C [9] was 104%. For the same molecule, the viability, T/C [10] was 79.6%, the viability, T/C [11] was 68% and the viability, T/C [12] was 63.1%. It also gave a viability, T/C [13] of 113%, a viability, T/C [14] of 116% and a viability, T/C [15] of 98.3%. The viability, T/C [16] was 75.3%, the viability, T/C [17] was 57.7% and the viability, T/C [18] was 42.1%. For the same molecule, the viability, T/C [19] was 98.2%, the viability, T/C [20] was 97.2% and the viability, T/C [21] was 52.7%. The viability, T/C [22] was 48.5%, the viability, T/C [23] was 48.2% and the viability, T/C [24] was 43.7%. It also gave a viability, T/C [25] of 88.8%, a viability, T/C [26] of 67.9% and a viability, T/C [27] of 49.2%. It also gave a viability, T/C [28] of 49.9%, a viability, T/C [29] of 41.2% and a viability, T/C [30] of 54.1%. For the same molecule, the viability, T/C [31] was 52.2%, the viability, T/C [32] was 61.4% and the viability, T/C [33] was 43.8%. It also gave a viability, T/C [34] of 37%, a viability, T/C [35] of 34.6% and a viability, T/C [36] of 33%.
Work on NC1c2ccccc2OC12CCN(c1cnc3c(N4CCCc5ncccc54)n[nH]c3n1)CC2 (stereo unspecified) + C#Cc1c(F)ccc2cc(O)cc(-c3ncc4c(N5CC6CCC(C5)N6)nc(OCC56CCCN5CC(F)C6)nc4c3F)c12 yielded an IC50 (second compound 0.0316 µM) of 4630 nM, an IC50 (second compound 0.1 µM) of 4730 nM and an IC50 (second compound 0.316 µM) of 1970 nM. The IC50 (second compound 1 µM) was 198 nM, the IC50 (second compound 3.16 µM) was 34.7 nM and the IC50 (second compound 10 µM) was < 31.6 nM. For the same molecule, the viability, T/C [1] was 128%, the viability, T/C [2] was 112% and the viability, T/C [3] was 75.9%. The viability, T/C [4] was 81.6%, the viability, T/C [5] was 67.6% and the viability, T/C [6] was 29.6%. For the same molecule, the viability, T/C [7] was 123%, the viability, T/C [8] was 105% and the viability, T/C [9] was 88.5%. For the same molecule, the viability, T/C [10] was 61.8%, the viability, T/C [11] was 56.6% and the viability, T/C [12] was 43.4%. The viability, T/C [13] was 114%, the viability, T/C [14] was 84.4% and the viability, T/C [15] was 63.2%. The viability, T/C [16] was 55.1%, the viability, T/C [17] was 49.2% and the viability, T/C [18] was 32.4%. It also gave a viability, T/C [19] of 88.6%, a viability, T/C [20] of 59.5% and a viability, T/C [21] of 43%. The viability, T/C [22] was 33.8%, the viability, T/C [23] was 43% and the viability, T/C [24] was 26.6%. The viability, T/C [25] was 50.5%, the viability, T/C [26] was 44.5% and the viability, T/C [27] was 50.7%. It also gave a viability, T/C [28] of 39%, a viability, T/C [29] of 35.6% and a viability, T/C [30] of 35.7%. For the same molecule, the viability, T/C [31] was 40%, the viability, T/C [32] was 44.4% and the viability, T/C [33] was 36.2%. It also gave a viability, T/C [34] of 29.5%, a viability, T/C [35] of 33.4% and a viability, T/C [36] of 31.6%.
